# Read-outs that look alike come from different tables or passages of the source.
# Tests used:
# Format in all cases: binding
# CAMK2BA = CAMK2BA (Homo sapiens, UniProt Q13554); assay: DSF selectivity screening; conditions: 10 μM compound
# Description: (§1) The assay was performed as previously described.[29],[35] Briefly, recombinant protein kinase domains at a concentration of 2 μM were mixed with a 10 μM compound in a buffer containing 20 mM HEPES, pH 7.5, and 500 mM NaCl. SYPRO Orange (5000×, Invitrogen) was added as a fluorescence probe (1 μL per mL). Subsequently, temperature-dependent protein unfolding profiles were measured using a QuantStudio 5 real-time PCR machine (Thermo Fisher). Excitation and emission filters were set to 465 and 590 nm, respectively. The temperature was raised with a step rate of 3 °C per minute. Data points were analyzed with internal software (Thermal Shift Software version 1.4, Thermo Fisher) using the Boltzmann equation to determine the inflection point of the transition curve (Table S4).
# CDC42BPAA = assay: DSF selectivity screening; conditions: 10 μM compound
# Description: as §1
# CSNK1DA = CSNK1DA (Homo sapiens, UniProt P48730); assay: DSF selectivity screening; conditions: 10 μM compound
# Description: as §1
# DMPKA = DMPKA (Homo sapiens, UniProt Q09013); assay: DSF selectivity screening; conditions: 10 μM compound
# Description: as §1
# EPHA5A = EPHA5A (Homo sapiens, UniProt P54756); assay: DSF selectivity screening; conditions: 10 μM compound
# Description: as §1
# EPHB1A = EPHB1A (Homo sapiens, UniProt P54762); assay: DSF selectivity screening; conditions: 10 μM compound
# Description: as §1
# FGFR1B = FGFR1B (Homo sapiens, UniProt P11362); assay: DSF selectivity screening; conditions: 10 μM compound
# Description: as §1
# GSG2A = GSG2A (Homo sapiens, UniProt Q8TF76); assay: DSF selectivity screening; conditions: 10 μM compound
# Description: as §1
# MAP3K5A = MAP3K5A (Homo sapiens, UniProt Q99683); assay: DSF selectivity screening; conditions: 10 μM compound
# Description: as §1
# MAPK13A = MAPK13A (Homo sapiens, UniProt O15264); assay: DSF selectivity screening; conditions: 10 μM compound
# Description: as §1
# MAPK15A = MAPK15A (Homo sapiens, UniProt Q8TD08); assay: DSF selectivity screening; conditions: 10 μM compound
# Description: as §1
# MAPK8B = MAPK8B (Homo sapiens, UniProt P45983); assay: DSF selectivity screening; conditions: 10 μM compound
# Description: as §1
# MAPKAPK2A = MAPKAPK2A (Homo sapiens, UniProt P49137); assay: DSF selectivity screening; conditions: 10 μM compound
# Description: as §1
# MARK4A = MARK4A (Homo sapiens, UniProt Q96L34); assay: DSF selectivity screening; conditions: 10 μM compound
# Description: as §1
# MST3A = MST3A (Homo sapiens, UniProt Q9Y6E0); assay: DSF selectivity screening; conditions: 10 μM compound
# Description: as §1
# OSR1A = OSR1A (Homo sapiens, UniProt O95747); assay: DSF selectivity screening; conditions: 10 μM compound
# Description: as §1
# PAK1A = PAK1A (Homo sapiens, UniProt Q13153); assay: DSF selectivity screening; conditions: 10 μM compound
# Description: as §1
# PLK4A = PLK4A (Homo sapiens, UniProt O00444); assay: DSF selectivity screening; conditions: 10 μM compound
# Description: as §1
# RIOK1A = RIOK1A (Homo sapiens, UniProt Q9BRS2); assay: DSF selectivity screening; conditions: 10 μM compound
# Description: as §1
# SLKA = SLKA (Homo sapiens, UniProt Q9H2G2); assay: DSF selectivity screening; conditions: 10 μM compound
# Description: as §1
# SRCA = SRCA (Homo sapiens, UniProt P12931); assay: DSF selectivity screening; conditions: 10 μM compound
# Description: as §1
# SRPK1A = SRPK1A (Homo sapiens, UniProt Q96SB4); assay: DSF selectivity screening; conditions: 10 μM compound
# Description: as §1
# STK6A = STK6A (Homo sapiens, UniProt O14965); assay: DSF selectivity screening; conditions: 10 μM compound
# Description: as §1
# ULK3A = ULK3A (Homo sapiens, UniProt Q6PHR2); assay: DSF selectivity screening; conditions: 10 μM compound
# Description: as §1
# LRRK2 = LRRK2 (Homo sapiens, UniProt Q5S007); assay: scanMAX KINOMEscan (Eurofins)
# [1] = target: ABL1(H396P)-nonphosphorylated (Homo sapiens, UniProt P00519, H396P); assay: biochemical; conditions: read-out: Percent Control
# [2] = target: ABL1(Q252H)-nonphosphorylated (Homo sapiens, UniProt P00519, Q252H); assay: biochemical; conditions: read-out: Percent Control
# KIT(V559D) = KIT(V559D) (Homo sapiens, UniProt P10721, V559D); assay: biochemical; conditions: 1000 nM, read-out: Percent Control
# [3] = target: ABL1(F317L)-nonphosphorylated (Homo sapiens, UniProt P00519, F317L); assay: biochemical; conditions: read-out: Percent Control
# EGFR(E746-A750del) = EGFR(E746-A750del) (Homo sapiens, UniProt P00533, DEL746-750); assay: biochemical; conditions: read-out: Percent Control
# EGFR(L861Q) = EGFR(L861Q) (Homo sapiens, UniProt P00533, L861Q); assay: biochemical; conditions: 1000 nM, read-out: Percent Control
# KIT(L576P) = KIT(L576P) (Homo sapiens, UniProt P10721, L576P); assay: biochemical; conditions: 1000 nM, read-out: Percent Control
# BRAF(V600E) = BRAF(V600E) (Homo sapiens, UniProt P15056, V600E); assay: biochemical; conditions: 1000 nM, read-out: Percent Control
# EGFR(L858R) = EGFR(L858R) (Homo sapiens, UniProt P00533, L858R); assay: biochemical; conditions: compound concentration 100 nM; Entrez EGFR; read-out: Percent Control
# KIT(D816V) = KIT(D816V) (Homo sapiens, UniProt P10721, D816V); assay: biochemical; conditions: compound concentration 100 nM; Entrez KIT; read-out: Percent Control
# KIT(V559D,T670I) = KIT(V559D,T670I) (Homo sapiens, UniProt P10721, T670I/V559D); assay: biochemical; conditions: compound concentration 100 nM; Entrez KIT; read-out: Percent Control
# LRRK2, sequence (Q5S007 whole entry): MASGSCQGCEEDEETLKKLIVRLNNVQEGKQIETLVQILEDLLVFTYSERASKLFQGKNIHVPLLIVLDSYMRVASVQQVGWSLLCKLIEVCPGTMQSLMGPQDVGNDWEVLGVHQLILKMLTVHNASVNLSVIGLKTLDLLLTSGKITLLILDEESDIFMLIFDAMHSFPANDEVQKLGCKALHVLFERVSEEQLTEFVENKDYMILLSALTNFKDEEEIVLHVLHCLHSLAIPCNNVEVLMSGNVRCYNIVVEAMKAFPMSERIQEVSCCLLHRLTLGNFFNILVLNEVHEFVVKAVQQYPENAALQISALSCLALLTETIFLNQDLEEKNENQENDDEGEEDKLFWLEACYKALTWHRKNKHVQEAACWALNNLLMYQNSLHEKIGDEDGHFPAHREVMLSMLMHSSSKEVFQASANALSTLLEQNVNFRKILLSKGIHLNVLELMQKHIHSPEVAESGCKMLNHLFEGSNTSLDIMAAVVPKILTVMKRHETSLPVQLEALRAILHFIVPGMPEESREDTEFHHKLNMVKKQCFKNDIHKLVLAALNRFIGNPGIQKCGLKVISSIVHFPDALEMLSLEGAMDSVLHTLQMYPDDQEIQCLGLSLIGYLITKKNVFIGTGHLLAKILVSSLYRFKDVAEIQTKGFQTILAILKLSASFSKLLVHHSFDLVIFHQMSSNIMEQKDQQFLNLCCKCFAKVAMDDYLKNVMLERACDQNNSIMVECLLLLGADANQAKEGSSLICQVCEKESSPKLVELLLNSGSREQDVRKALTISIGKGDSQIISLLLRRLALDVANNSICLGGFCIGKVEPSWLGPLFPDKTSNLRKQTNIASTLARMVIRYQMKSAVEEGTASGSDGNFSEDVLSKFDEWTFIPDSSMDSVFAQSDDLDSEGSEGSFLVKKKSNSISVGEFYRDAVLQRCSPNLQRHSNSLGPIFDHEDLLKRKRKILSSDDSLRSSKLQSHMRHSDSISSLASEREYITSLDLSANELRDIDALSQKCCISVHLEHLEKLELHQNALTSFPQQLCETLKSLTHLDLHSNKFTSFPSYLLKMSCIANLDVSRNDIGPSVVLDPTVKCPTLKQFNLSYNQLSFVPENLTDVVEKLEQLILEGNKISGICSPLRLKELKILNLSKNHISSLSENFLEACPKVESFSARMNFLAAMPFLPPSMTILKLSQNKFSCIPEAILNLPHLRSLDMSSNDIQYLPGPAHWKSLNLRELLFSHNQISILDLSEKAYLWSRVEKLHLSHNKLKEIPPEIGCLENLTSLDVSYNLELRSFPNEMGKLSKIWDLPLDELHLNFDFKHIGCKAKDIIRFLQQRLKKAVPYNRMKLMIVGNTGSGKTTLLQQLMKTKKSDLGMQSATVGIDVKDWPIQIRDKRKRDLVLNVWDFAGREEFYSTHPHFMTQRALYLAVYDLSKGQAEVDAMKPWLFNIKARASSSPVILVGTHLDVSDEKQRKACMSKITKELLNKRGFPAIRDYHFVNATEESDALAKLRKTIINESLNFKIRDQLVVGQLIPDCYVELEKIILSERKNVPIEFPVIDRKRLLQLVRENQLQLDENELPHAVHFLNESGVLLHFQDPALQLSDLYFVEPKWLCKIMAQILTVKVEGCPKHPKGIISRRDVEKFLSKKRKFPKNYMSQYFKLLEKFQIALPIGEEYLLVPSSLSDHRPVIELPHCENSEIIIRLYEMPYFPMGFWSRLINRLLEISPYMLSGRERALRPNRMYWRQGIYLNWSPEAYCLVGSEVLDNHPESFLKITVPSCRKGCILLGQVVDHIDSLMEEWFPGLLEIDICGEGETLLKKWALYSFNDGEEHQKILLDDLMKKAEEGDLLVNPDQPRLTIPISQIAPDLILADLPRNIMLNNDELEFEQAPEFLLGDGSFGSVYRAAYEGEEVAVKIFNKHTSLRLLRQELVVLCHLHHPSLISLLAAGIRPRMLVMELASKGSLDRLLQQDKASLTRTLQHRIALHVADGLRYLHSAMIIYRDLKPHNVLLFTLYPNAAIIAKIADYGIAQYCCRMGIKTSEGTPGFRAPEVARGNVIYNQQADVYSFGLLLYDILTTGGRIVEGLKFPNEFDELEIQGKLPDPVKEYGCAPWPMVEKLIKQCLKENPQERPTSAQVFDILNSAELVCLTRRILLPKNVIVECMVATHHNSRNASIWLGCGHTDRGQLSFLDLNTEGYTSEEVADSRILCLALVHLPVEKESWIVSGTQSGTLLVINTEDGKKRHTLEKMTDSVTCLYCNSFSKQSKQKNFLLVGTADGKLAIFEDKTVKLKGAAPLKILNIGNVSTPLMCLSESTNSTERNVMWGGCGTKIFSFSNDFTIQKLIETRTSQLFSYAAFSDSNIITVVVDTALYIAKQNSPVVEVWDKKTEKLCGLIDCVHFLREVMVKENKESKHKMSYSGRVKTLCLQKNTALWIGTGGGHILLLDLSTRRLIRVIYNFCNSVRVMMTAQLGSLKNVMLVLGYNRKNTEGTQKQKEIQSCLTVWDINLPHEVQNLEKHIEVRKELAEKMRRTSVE
# FGFR1B, sequence (P11362 456-767): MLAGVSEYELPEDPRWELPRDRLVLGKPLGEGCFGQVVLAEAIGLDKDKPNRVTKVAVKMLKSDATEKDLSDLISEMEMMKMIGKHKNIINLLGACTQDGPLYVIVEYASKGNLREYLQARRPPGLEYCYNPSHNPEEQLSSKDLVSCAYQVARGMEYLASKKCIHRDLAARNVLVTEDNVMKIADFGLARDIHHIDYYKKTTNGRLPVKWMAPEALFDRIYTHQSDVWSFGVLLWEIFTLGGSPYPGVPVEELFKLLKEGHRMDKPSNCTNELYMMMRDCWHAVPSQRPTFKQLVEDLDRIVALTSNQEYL
# SLKA, sequence (Q9H2G2 19-320): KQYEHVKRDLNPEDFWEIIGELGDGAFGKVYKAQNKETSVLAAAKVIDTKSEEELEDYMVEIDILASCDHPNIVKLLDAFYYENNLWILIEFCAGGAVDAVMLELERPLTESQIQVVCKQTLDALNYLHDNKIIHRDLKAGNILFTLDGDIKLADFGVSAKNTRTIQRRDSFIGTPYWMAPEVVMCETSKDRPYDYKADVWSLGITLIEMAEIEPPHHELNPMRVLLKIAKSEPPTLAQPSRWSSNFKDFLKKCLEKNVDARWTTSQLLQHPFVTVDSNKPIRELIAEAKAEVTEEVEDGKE
# STK6A, sequence (O14965 122-403): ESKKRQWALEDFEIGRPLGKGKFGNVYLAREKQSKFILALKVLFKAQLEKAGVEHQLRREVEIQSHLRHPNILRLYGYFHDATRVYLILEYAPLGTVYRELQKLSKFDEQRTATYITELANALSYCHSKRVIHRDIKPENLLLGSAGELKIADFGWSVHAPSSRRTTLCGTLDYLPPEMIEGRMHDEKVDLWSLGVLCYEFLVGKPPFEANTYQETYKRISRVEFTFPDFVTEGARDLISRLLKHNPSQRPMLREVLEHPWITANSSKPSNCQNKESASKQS
# BRAF(V600E), sequence (P15056 whole entry V600E): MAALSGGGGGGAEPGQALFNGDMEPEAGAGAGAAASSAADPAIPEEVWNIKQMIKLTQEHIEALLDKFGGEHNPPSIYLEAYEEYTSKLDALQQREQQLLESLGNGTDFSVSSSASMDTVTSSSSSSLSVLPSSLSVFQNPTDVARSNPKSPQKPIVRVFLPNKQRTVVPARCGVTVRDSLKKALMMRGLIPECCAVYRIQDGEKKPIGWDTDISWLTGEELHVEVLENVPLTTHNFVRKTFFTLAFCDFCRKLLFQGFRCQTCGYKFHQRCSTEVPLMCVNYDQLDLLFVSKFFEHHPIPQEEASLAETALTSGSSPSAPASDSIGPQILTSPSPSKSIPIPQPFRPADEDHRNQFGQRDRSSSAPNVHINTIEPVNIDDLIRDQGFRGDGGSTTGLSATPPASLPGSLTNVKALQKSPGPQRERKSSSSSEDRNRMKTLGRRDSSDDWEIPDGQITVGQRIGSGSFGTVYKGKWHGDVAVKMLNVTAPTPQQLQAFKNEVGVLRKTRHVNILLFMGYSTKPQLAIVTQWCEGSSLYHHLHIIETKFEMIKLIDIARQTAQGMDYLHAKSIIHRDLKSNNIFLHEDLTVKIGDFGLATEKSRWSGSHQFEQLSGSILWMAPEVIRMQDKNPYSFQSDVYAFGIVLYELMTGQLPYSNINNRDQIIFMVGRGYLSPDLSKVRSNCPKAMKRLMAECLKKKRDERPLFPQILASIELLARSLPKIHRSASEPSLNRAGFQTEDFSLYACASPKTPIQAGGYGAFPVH
# GSG2A, sequence (Q8TF76 465-798): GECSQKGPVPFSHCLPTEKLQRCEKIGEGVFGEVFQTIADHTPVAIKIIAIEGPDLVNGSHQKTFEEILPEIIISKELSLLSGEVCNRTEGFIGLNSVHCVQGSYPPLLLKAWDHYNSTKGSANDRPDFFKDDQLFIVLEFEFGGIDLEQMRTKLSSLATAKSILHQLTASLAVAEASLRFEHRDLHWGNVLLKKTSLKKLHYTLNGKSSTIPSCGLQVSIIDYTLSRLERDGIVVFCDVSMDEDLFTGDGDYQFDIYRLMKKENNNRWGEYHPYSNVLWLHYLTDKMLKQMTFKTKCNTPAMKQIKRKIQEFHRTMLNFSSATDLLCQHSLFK
# EPHA5A, sequence (P54756 653-939): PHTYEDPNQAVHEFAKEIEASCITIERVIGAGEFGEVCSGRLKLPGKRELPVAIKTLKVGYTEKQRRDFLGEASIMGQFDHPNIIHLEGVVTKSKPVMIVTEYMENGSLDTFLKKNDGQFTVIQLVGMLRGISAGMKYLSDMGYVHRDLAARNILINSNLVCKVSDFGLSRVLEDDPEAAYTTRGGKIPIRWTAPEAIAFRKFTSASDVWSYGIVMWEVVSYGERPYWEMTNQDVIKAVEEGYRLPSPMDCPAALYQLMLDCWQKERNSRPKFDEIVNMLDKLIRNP
structure (smiles),measurement,setting,value
"CN1C(=O)[C@@H](N2CCc3c(nn(Cc4ccccc4)c3C(N)=O)C2=O)COc2cc(Cl)ccc21 [Compound 10, (S)-2-benzyl-6-(8-chloro-5-methyl-4-oxo-2,3,4,5-tetrahydrobenzo[b][1,4]oxazepin-3-yl)-7-oxo-4,5,6,7-tetrahydro-2H-pyrazolo[3,4-c]pyridine-3-carboxamide]",ΔTm at 10 µM,CAMK2BA,0.1 °C
same,ΔTM,CDC42BPAA,-0.1 K
same,ΔTm at 10 µM,CSNK1DA,0.5 °C
same,ΔTm at 10 µM,DMPKA,0.1 °C
same,ΔTm at 10 µM,EPHA5A,0 °C
same,ΔTm at 10 µM,EPHB1A,0.1 °C
same,ΔTm at 10 µM,FGFR1B,-0.1 °C
same,ΔTm at 10 µM,GSG2A,0.2 °C
same,ΔTm at 10 µM,MAP3K5A,0 °C
same,ΔTm at 10 µM,MAPK13A,-0.1 °C
same,ΔTm at 10 µM,MAPK15A,0 °C
same,ΔTm at 10 µM,MAPK8B,0.1 °C
same,ΔTm at 10 µM,MAPKAPK2A,0 °C
same,ΔTm at 10 µM,MARK4A,-1.9 °C
same,ΔTm at 10 µM,MST3A,-0.3 °C
same,ΔTm at 10 µM,OSR1A,0.4 °C
same,ΔTm at 10 µM,PAK1A,0.2 °C
same,ΔTm at 10 µM,PLK4A,0.2 °C
same,ΔTm at 10 µM,RIOK1A,0.5 °C
same,ΔTm at 10 µM,SLKA,-0.3 °C
same,ΔTm at 10 µM,SRCA,0.1 °C
same,ΔTm at 10 µM,SRPK1A,0 °C
same,ΔTm at 10 µM,STK6A,0.1 °C
same,ΔTm at 10 µM,ULK3A,0.2 °C
same,remaining binding at 0.1 µM,"LRRK2; LRRK2 (Entrez LRRK2), 100 nM, read-out: Percent Control",84%
same,remaining binding at 1 µM,"LRRK2; LRRK2, 1 μM, read-out: POC (Top Hits @ 1 μM)",62%
same,remaining binding at 1 µM,"LRRK2; LRRK2, 1000 nM, read-out: Percent Control",62%
same,remaining activity at 1 µM,[1],66%
same,remaining activity at 1 µM,[2],79%
same,remaining activity at 1 µM,KIT(V559D),85%
same,remaining activity at 1 µM,[3],86%
same,remaining activity at 1 µM,EGFR(E746-A750del),86%
same,remaining activity at 1 µM,EGFR(L861Q),88%
same,remaining activity at 1 µM,KIT(L576P),92%
same,remaining activity at 1 µM,BRAF(V600E),100%
same,remaining activity at 0.1 µM,EGFR(L858R),100%
same,remaining activity at 0.1 µM,KIT(D816V),100%
same,remaining activity at 0.1 µM,"KIT(V559D,T670I)",92%

# Source: publication PMC12090182, “Repurposing of the RIPK1-Selective Benzo[1,4]oxazepin-4-one Scaffold for the Development of a Type III LIMK1/2 Inhibitor” (ACS Chemical Biology, 2025)
